Measurements as given in patent publication US20220273590A1, “COMPOUNDS FOR PREVENTION AND TREATMENT OF POST-OPERATIVE COGNITIVE DYSFUNCTION” (ABREXA PHARMACEUTICALS, INC., priority 2019, published 2022).
Where two headings read alike, the source gives them in different places.

Tests used:
[1] = Body weight and food intake in the POCD study; type: in vivo, Wistar rats
Source text: A total of 60 male Wistar rats (Wu-Wistar, Envigo, The Netherlands) were studied in 5 cohorts. For that, rats were ordered in 5 groups of different weight classes (220-280 g) to ensure that each group would be around 350 g at the time of surgery. Rats arrived at the facility at least 2 weeks before start of the experiments, and were put on reversed light:dark cycle 12:12 with the lights out at 09:00 am. Rats were housed in groups of 2-3 in standard cages under controlled conditions (temperature of 20+/−2 degrees and humidity of 50% +/−10%). The rats were fed with water and Teklad (Envigo, 2018) chow food ad libitum. After surgery, rats were housed individually. Approval of all experiments was given by the applicable animal and welfare committee of the Netherlands.
One week before surgery, chronic treatment J147 treatment started and continued until the end of the experiment. The day of surgery, rats for acute treatment received their J147 (4-5 hours before surgery) by gavage, while the designated control rats received vehicle gavage. Rats were subjected to abdominal surgery, and allowed to recover. After that rats were housed individually. Non-surgery control were placed in individual cages at the same time. Blood samples were collected from the jugular vein catheter at the time of surgery (plasma levels of J147) and at 1, 6 and 24 hours after surgery (plasma inflammatory markers). The first week post-surgery, rats were weighed daily and food intake was measured. Day 7-12 post-surgery rats were subjected to behavioral testing regarding general exploratory behavior and cognitive performance. On Day 14 rats were sacrificed, blood samples were collected from cardiac puncture, CSF was collected, and brain tissue was collected and processed for immunohistochemistry or molecular analyses.
For chronic oral treatment, J147 was added to the food (Teklad 2018, Envigo) at a concentration of 500 mg/kg. J147 was provided by Abrexa and Envigo prepared the food. […] After surgery food intake was measured daily during the last hour of the light phase. […]

[2] = Brain levels of J147 after oral administration in Basis suspension; type: in vivo, Adult Wister Rats; conditions: oral 20 mg/kg in Basis suspension, PO_B satellite
Protocol: Plasma samples obtained during surgery in J147-treated rats and 3 control rats were measured for circulating levels of J147. Results of pharmacokinetic measures of both plasma and brain levels of J147 in rats following oral administration of J147 in basis suspension at 20 mg/kg and also following intravascular administration at 5 mg/kg are shown in Table 2A-C below. When taking the absence of an appropriate peak as zero, mean concentration is 0 ng/ml in controls, 3.103 ng/ml in acutely treated rats and 0.233 ng/ml in chronically treated rats. J147 levels in food were verified as well (467 mg/kg). […] During the first 10 days after surgery and individual housing, rats on the diet ate on average 20±1 g, which was similar to the 20±1 g in surgery with control food and 23±1 g in non-surgery controls, verifying the anticipated intake of 10 mg J147/rat/day and further supporting no preference or aversion for the diet food.
Tables 2A-2B. Pharmacokinetic Measures of Plasma and Brain Levels of J147 Formulated in Basis Suspension Administered Orally to Adult Wister Rats at 20mg/kg.
• All of the brain samples were added with […] by brain weight (g) to PBS volume (mL) ratio 1:3 for homogenization. • The actual concentration (ng/g) is the detected value (ng/mL) multiplied by 4. • BLOQ: Below limit of quantitation (LLOQ: 2 ng/g) • NA: not available

COc1cccc(/C=N/N(C(=O)C(F)(F)F)c2ccc(C)cc2C)c1 [J147]
body weight gained during first week on the J147 diet ([1]; chronic J147 500 mg/kg food, week before surgery, control fed rats 33.5±3.0 g): 32.0 ± 1.8 g | average food eaten during the first 10 days after surgery ([1]; chronic J147 diet, individual housing, surgery control food 20±1 g): 20 ± 1 g | body weight loss after surgery ([1]; chronically treated rats (J147 500 mg/kg food)): lost significantly less body weight after surgery | concentration at 0.25 h ([2]; Wistar, rat, brain homogenate, po, 20 mg/kg, brain homogenate 1:3, Group 1, Group 2, LLOQ 2 ng/g, read-out: Brain Detected Conc.): 0.736 ng/mL | concentration at 0.5 h ([2]; Wistar, rat, brain homogenate, po, 20 mg/kg, 0.5 h, brain homogenate 1:3, Group 1, Group 2, LLOQ 2 ng/g, read-out: Brain Detected Conc.): 1.14 ng/mL | concentration at 1 h ([2]; Wistar, rat, brain homogenate, po, 20 mg/kg, 1 h, brain homogenate 1:3, Group 1, Group 2, LLOQ 2 ng/g, read-out: Brain Detected Conc.): 7.01 ng/mL | concentration at 8 h ([2]; Wistar, rat, brain homogenate, po, 20 mg/kg, 8 h, brain homogenate 1:3, Group 1, Group 2, LLOQ 2 ng/g, read-out: Brain Detected Conc.): 0.831 ng/mL | concentration at 0.25 h ([2]; Wistar, rat, brain, po, 20 mg/kg, detected value multiplied by 4, Group 1, Group 2, read-out: Brain Actual Conc.): 2.94 ng/g | concentration at 0.5 h ([2]; Wistar, rat, brain, po, 20 mg/kg, 0.5 h, detected value multiplied by 4, Group 1, Group 2, read-out: Brain Actual Conc.): 4.56 ng/g | concentration at 0.5 h ([2]; Wistar, rat, brain, po, 20 mg/kg, 0.5 h, mean of Group 1 and 2, read-out: Brain Actual Conc. Mean): 3.94 ng/g | concentration at 1 h ([2]; Wistar, rat, brain, po, 20 mg/kg, 1 h, detected value multiplied by 4, Group 1, Group 2, read-out: Brain Actual Conc.): 28 ng/g | concentration at 1 h ([2]; Wistar, rat, brain, po, 20 mg/kg, 1 h, mean of Group 1 and 2, read-out: Brain Actual Conc. Mean): 23.7 ng/g | concentration at 2 h ([2]; Wistar, rat, brain, po, 20 mg/kg, 2 h, mean of Group 1 and 2, read-out: Brain Actual Conc. Mean): 28 ng/g | concentration at 4 h ([2]; Wistar, rat, brain, po, 20 mg/kg, 4 h, mean of Group 1 and 2, read-out: Brain Actual Conc. Mean): 20.6 ng/g | concentration at 8 h ([2]; Wistar, rat, brain, po, 20 mg/kg, 8 h, detected value multiplied by 4, Group 1, Group 2, read-out: Brain Actual Conc.): 3.32 ng/g | concentration at 8 h ([2]; Wistar, rat, brain, po, 20 mg/kg, 8 h, mean of Group 1 and 2, read-out: Brain Actual Conc. Mean): 3.26 ng/g | Brain Detected Conc. ([2]; 0.5 h, brain homogenate 1:3, Group 1, Group 2, LLOQ 2 ng/g, 20 mg/kg): 0.830 ng/mL | Brain Actual Conc. ([2]; 0.5 h, detected value multiplied by 4, Group 1, Group 2, 20 mg/kg): 3.32 ng/g | Brain Detected Conc. ([2]; 1 h, brain homogenate 1:3, Group 1, Group 2, LLOQ 2 ng/g, 20 mg/kg): 4.83 ng/mL | Brain Actual Conc. ([2]; 1 h, detected value multiplied by 4, Group 1, Group 2, 20 mg/kg): 19.3 ng/g | Brain Detected Conc. ([2]; 8 h, brain homogenate 1:3, Group 1, Group 2, LLOQ 2 ng/g, 20 mg/kg): 0.799 ng/mL | Brain Actual Conc. ([2]; 8 h, detected value multiplied by 4, Group 1, Group 2, 20 mg/kg): 3.20 ng/g | Brain Detected Conc. ([2]; 12 h, brain homogenate 1:3, Group 1, Group 2, LLOQ 2 ng/g): BLOQ | Brain Detected Conc. ([2]; 16 h, brain homogenate 1:3, Group 1, Group 2, LLOQ 2 ng/g): BLOQ | Brain Detected Conc. ([2]; 20 h, brain homogenate 1:3, Group 1, Group 2, LLOQ 2 ng/g): BLOQ | Brain Detected Conc. ([2]; 24 h, brain homogenate 1:3, Group 1, Group 2, LLOQ 2 ng/g): BLOQ
